Literature values in US11225464B2, “Compositions and methods for the treatment of gastrointestinal polyps” (CELLIX BIO PRIVATE LIMITED, priority 2016, dated 2022).

Tests used:
[1] = system: colorectal adenomas; conditions: FAP patients; long-term use; colon as well as rectum of patients after colectomy
[2] = system: duodenal adenomas; conditions: FAP patients
[3] = long-term users

Compound	reduction of the number of colorectal adenomas [1] [%]	effect on duodenal polyposis / number of duodenal adenomas [2]	cardiovascular effects [3]
CC1=C(CC(=O)O)c2cc(F)ccc2/C1=C\c1ccc([S+](C)[O-])cc1 (stereo not drawn) [sulindac]	> 50	not in duodenal polyposis	
CS(=O)(=O)c1ccc(C2=C(c3ccccc3)C(=O)OC2)cc1 [rofecoxib]			cardiovascular effects (myocardial infarction or stroke) have been described
